Assay results: patent US20120058983A1, “Adenosine A1 agonists for the treatment of glaucoma and ocular hypertension” (BAYER PHARMA AKTIENGESELLSCHAFT, priority 2010, published 2012)

What was measured:
cynomolgus monkeys = cynomolgus monkeys (Lit. 9); cited from earlier work
rabbits = rabbits (Lit. 6,7,8); cited from earlier work
Wistar rats = assay: IOP measurements in rats (topical administration to the eye; IOP and hemodynamic parameters); type: in vivo, rat
Experimental: Wistar rats with a body weight of about 300 g were anesthetized with isoflurane (2-3% in O2:N2O=1:2). The test compounds were diluted in 0.9% sodium chloride and given by topical administration to the eye in 10 μl volume at a concentration of 10 mg/ml. IOP was measured with a rebound tonometer (TonoLab) at different time points after application of the drugs. Ocular pressure and effects of hemodynamic parameters can be monitored in this model.
N^6-Cyclopentyl-Adenosine and Example 1 reduce IOP at a volume of 10 μl (concentration 10 mg/ml).

Row | Structure (SMILES) | intraocular pressure (cynomolgus monkeys) | intraocular pressure (rabbits) | effects on mean arterial blood pressure / hemodynamic parameters (Wistar rats; Wistar rats, 10 mg/ml (FIG. 2)) | IOP (Wistar rats; anesthetized Wistar rats, 10 μl volume, concentration 10 mg/ml, rebound tonometer (FIG. 1))
1 | OC[C@H]1O[C@@H](n2cnc3c(NC4CCCCC4)ncnc32)[C@H](O)[C@@H]1O [CHA, N6-cyclohexyl-adenosine] | lower intraocular pressure | lower intraocular pressure |  | 
2 | OC[C@H]1O[C@@H](n2cnc3c(NC4CCCC4)ncnc32)[C@H](O)[C@@H]1O [N^6-Cyclopentyl-Adenosine] |  |  | significantly reduces blood pressure | reduce IOP
3 | C[C@H](Cc1ccccc1)Nc1ncnc2c1ncn2[C@@H]1O[C@H](CO)[C@@H](O)[C@H]1O [R-PIA, R(−)-N-6-(2-phenylisopropyl)adenosine] | lower intraocular pressure | lower intraocular pressure |  | 
